Tests used:
[1] = test system: USP8 MIT domain; test: SPOT array alanine scanning, USP8 MIT domain; type: binding, human; conditions: cellulose-bound peptides, GST-tagged MIT 100 µM, 5% skim milk TBST, overnight 4 °C, anti-GST HRP chemiluminescence; normalized to wild type
Method: SPOT array alanine scanning of peptides was designed, and cellulose-bound peptides were synthesized using Fluorenylmethyloxycarbonyl (Fmoc) solid phase synthesis with a MultiPep synthesizer (INTAVIS Peptide Services, Tübingen, Germany). The membranes of predicted peptides were purchased by JPT Peptide Technologies (Berlin, Germany). The membranes were incubated with blocking buffer containing 5% skim milk in TBST (50 mM Tris, 150 mM NaCl pH 7.5, 0.05% Tween-20) for two hours at room temperature. The blocked membranes were incubated with GST-tagged proteins (100 µM for MIT domain and 150 µM for the Rhodanese domain) in blocking buffer overnight at 4 °C. After rinsed with TBST the membranes were incubated with HRP-conjugated anti-GST antibody (Cytiva, RPN1236; 1:3000 dilution) in blocking buffer for 1 h at 4 °C and subsequently rinsed with TBST to remove any excess antibody. The ECL reagent (Clarity Max Western ECL substrate, 1705062, BioRad) was used for chemiluminescence read-out with the ChemiDoc Imaging system (BioRad). The images were analysed with Fiji (ImageJ2 version 2.9.0). SLiMSearch4 was used to design the peptide arrays with known interactors predicted to contain the motifs. The background signal intensity was subtracted, and the corrected signal intensities were normalized to the positive control and presented as percentage.

[2] = test system: USP8 MIT domain; test: SPOT array of predicted peptides from known interactors, USP8 MIT domain; type: binding, human; conditions: for Percentage (%) normalized to highest intensity and corrected for background: SPOT array, GST-tagged MIT 100 µM, overnight 4 °C, chemiluminescence, highest intensity = DNAJB6; for Percentage (%): Supplementary Fig. 4B, normalized to the highest intensity and corrected for background
From the text: To further assess the SLiM-based interactions of the USP8 MIT domain, we designed a peptide array tiling 24 potential binding sites in previously reported USP8 interactors. We used SLiMSearch to search for peptides that contain shorter or longer matches to the motif (Supplementary Table S4A). […] The DNAJB6_118 - 130 peptide was predicted as a binder based on a partial DFx{2,3}R motif. The DNAJB6-USP8 interaction is supported by previous GST-pulldown experiments and colocalization of the two proteins in male mouse germ cells, and the interaction is thought to be of importance to the protein quality control to yield functional spermatozoa. In the case of the CDH1_863 - 877 peptide it was predicted as USP8 MIT ligand based on the presence of an RFxxL motif. The previous support of the CDH1-USP8 interaction is based on proximity labelling mass spectrometry, and our results thus provide evidence for a binary interaction between the two proteins and define a binding site. To confirm that the motifs used to predict the interactions were of importance for binding we designed an alanine scanning peptide SPOT array analysis of the DNAJB6_118 - 130 and the CDH1_863 - 877 peptides. […] In summary, we find that the USP8 MIT domain binds to a MIM1-like motif that can be expressed by [[…]], as well as degenerate variants thereof. […] The membranes of predicted peptides were purchased by JPT Peptide Technologies (Berlin, Germany). The membranes were incubated with blocking buffer containing 5% skim milk in TBST (50 mM Tris, 150 mM NaCl pH 7.5, 0.05% Tween-20) for two hours at room temperature. The blocked membranes were incubated with GST-tagged proteins (100 μM for MIT domain and 150 μM for the Rhodanese domain) in blocking buffer overnight at 4 °C. After rinsed with TBST the membranes were incubated with HRP-conjugated anti-GST antibody (Cytiva, RPN1236; 1:3000 dilution) in blocking buffer for 1 h at 4 °C and subsequently rinsed with TBST to remove any excess antibody. The ECL reagent (Clarity Max Western ECL substrate, 1705062, BioRad) was used for chemiluminescence read-out with the ChemiDoc Imaging system (BioRad). The images were analysed with Fiji (ImageJ2 version 2.9.0). […] used to design the peptide arrays with known interactors predicted to contain the motifs. The background signal intensity was subtracted, and the corrected signal intensities were normalized to the positive control and presented as percentage.

[3] = target: T1, USP8 Rhod domain (Homo sapiens, UniProt P40818); test: Competitive fluorescence polarization (displacement of FITC-TET3_1705 − 1720); type: binding; conditions: FP displacement, 1.5 µM protein, 10 nM FITC-labeled peptide, 50 mM sodium phosphate pH 7.4, 1 mM DTT; mean ± SD, N = 3 technical triplicates (Fig. 3 legend)
T1 construct: USP8 Rhod (174–317) (UniProt: P40818); GST (cleaved yes); made in house; host or cells: Escherichia coli BL21-Gold (DE3)
T1 sequence (P40818 174-317): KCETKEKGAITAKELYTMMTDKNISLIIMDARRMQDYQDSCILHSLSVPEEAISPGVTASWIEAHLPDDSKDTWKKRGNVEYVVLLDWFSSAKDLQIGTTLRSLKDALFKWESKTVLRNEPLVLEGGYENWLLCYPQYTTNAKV
Method: We next evaluated the peptide binding of the Rhod domain by ProP-PD selections. […] (February 2025).
The peptides were obtained from GeneCust (France) with > 95% purity. Measurement of the direct binding with a constant concentration of FITC-labeled peptides was performed by increasing concentration of the protein. The KD value from the direct binding experiment was obtained by fitting against a quadratic equation (Eq. 4) where “pept” indicates the fixed probe peptide concentrations, X indicates the protein concentration, the constant A is the signal amplitude divided by probe peptide concentration, and B is the plateau value. Eq. 4: [drawing 9]
Displacement experiments were carried out by increasing concentration of the unlabeled peptides. The data were fitted with a sigmoidal dose-response equation. The results were analysed with GraphPad Prism version 9.2.0.

[4] = test system: USP8 MIT domain; test: Proteomic peptide-phage display (ProP-PD) selection against USP8 MIT domain; type: binding, human; design: Confidence: scale not given here; conditions: for NGS counts (%): ProP-PD, human disorderome library, GST-tagged MIT bait, four rounds of selection, percent of NGS counts associated with each peptide, Fig. 1B; for max_counts: Total NGS counts; for Confidence: calculated based on four metrics: overlapping peptides, replicated peptides, motif match, peptide counts; for Counts: fraction of NGS counts for a selection; for Promiscuity: number of baits selections where the peptide has been observed, calculated on the domain level; for Replicates: number of screens against the bait protein in which the peptide has been found; for Specificity: proportion for the current bait of the total NGS read counts of the peptide for all baits screened with this library
Method: We explored the peptide-binding of the USP8 MIT domain by using the purified GST-tagged MIT domain as bait in proteomic peptide-phage display (ProP-PD) selections and a library designed to display the predicted unstructured regions of the human proteome. The peptide-coding regions of the binding-enriched phage pools were analysed by next-generation sequencing (NGS). After filtering for high confidence ligands, ten ligands remained (Fig. 1B; Supplementary Table S1). None of the ten identified protein-protein interactions had been previously reported, based on comparison with the information available in IntAct, HIPPIE and BioGrid (February 2025). Of the USP8 interacting proteins found, the D site-binding protein (DBP), which is a clock-controlled transcription factor, appears as an interesting ligand as USP8 has been reported to be involved in controlling the circadian rhythm. Also, the CCDC88A-encoded protein Girdin is an interactor of potential biological relevance as it is a scaffolding protein involved in the EGFR pathway which USP8 is known to regulate. At the motif level, there was no shared consensus motif among the ten peptide ligands. However, by manual inspection we noticed that four of the peptides contained a shared [LI]xxR[IY]xxL sequence, which appears to be a variation of the [DE]xxLxxRLxxL[KR] MIM1 motif described in the Eukaryotic Linear Motif resource (ELM) (Fig. 1B). We performed a SPOT array alanine scanning analysis in which peptides are synthesised on a membrane, and where each amino acid position of the peptide is mutated to alanine (or glycine if alanine is in the wild type peptide) to evaluate the effect of the amino acid residues in binding. We tested two peptides containing the apparent MIM1-like motif, one from Girdin (Girdin1192 − 1207) and one from the histone-lysine N-methyltransferase SETD1B (SETD1B492 − 507). […] AlphaFold3 (AF3) modelling of the four peptides with the variant MIM1 motif and the MIT domain docked the peptides with high confidence (ipTM scores: HIVEP1_741 − 756: 0.87, Girdin1192 − 1207: 0.85, MLPH481 − 496: 0.82, SETD1B492 − 507: 0.75) at the expected MIM1 binding pocket (Fig. 1D). […] However, the USP8 MIT selection was dominated (more than 94% of NGS counts) by two peptides that lack an apparent MIM1 motif. The two peptides were from the EF-hand calcium-binding domain-containing protein 12 (EFCAB12_1 − 16: […]) and from DBP (DBP116 − 131: […]) (Fig. 1B). […] In comparison to this, the EFCAB12_1 − 16 peptide shares a potential Dx[YF]xxxH[SG] motif with the DBP116 − 131 (Fig. 1B). […] The AF3 model of DBP116 − 131 peptide supports the interaction of D120 of the DBP116 − 131 peptide with the residues K74 and N71 in the MIT domain (Fig. 1G), emphasizing the significance of the aspartic acid at this position. […] Of them, two peptides (SYNE2_853 − 868 and PKNOX1_56 − 71) where placed in the same binding site as the Girdin and DBP peptides with high confidences by AF3 modelling (ipTM 0.92 and 0.74; Supplementary Fig. S3).
Four rounds of phage selections were carried out using the second generation human disorderome library or the constructed deep mutational scanning library. At least three individual replicates were used for each bait protein. 10 µg of GST-tagged proteins or GST control (diluted in PBS from the stock of proteins kept in the purification elution buffer) were immobilized in 100 µL PBS on a 96-well MaxiSorp (Nunc) plate overnight at 4 °C. The plates were incubated with blocking buffer (with 0.5% BSA in PBS) for 1 h at 4 °C followed by washing with 0.05% Tween 20 in PBS four times. The naïve phage library (10^11 CFU) was diluted in 1/5th volume PEG/NaCl (20% PEG-8000, 0.4 M NaCl) and 1X PBS, incubated on ice for 10 min and centrifuged at 10,000 [drawing 3] g for 10 min. The pellet was resuspended in the volume of PBS (100 µL/ well). […]

Row | Kd [3] | Compound | residues important for binding by SPOT array alanine scanning [1] | Percentage (%) normalized to highest intensity and corrected for background [2] | Percentage (%) [2] | NGS counts (%) [4] | max_counts [4] | Confidence [4] | Counts [4] | Promiscuity [4] | Replicates [4] | Specificity [4]
1 | – | PFEDFFGNRRGPR [DNAJB6_118 − 130, DnaJ homolog subfamily B member 6 peptide] | confirmed the importance of the aspartic acid and the phenylalanine of the predicted motif (DFx{2,3}R) and showed that the mutations of the flanking residues also reduced binding | 100% | 100% | – | – | – | – | – | – | –
2 | 10 ± 2 µM | CSCC[C@H](NC(=O)CN)C(=O)N[C@@H](CCC(=O)O)C(=O)N[C@@H](CCCNC(=N)N)C(=O)N[C@H](C(=O)N[C@@H](CC(C)C)C(=O)NCC(=O)NCC(=O)N[C@@H](CC(C)C)C(=O)N[C@@H](CO)C(=O)N[C@@H](CO)C(=O)N1CCC[C@H]1C(=O)N[C@@H](CC(C)C)C(=O)N[C@@H](CCCNC(=N)N)C(=O)N[C@@H](CC(C)C)C(=O)N[C@@H](CC(C)C)C(=O)O)C(C)C [KIAA1614_568 − 583] | – | – | – | – | – | – | – | – | – | –
3 | – | PEKPHDSLDSRIEMLL [SETD1B492 − 507, Histone-lysine N-methyltransferase SETD1B peptide] | confirmed the contributions of the motif residues in binding and the aspartic acid in position p2 of the motif | – | – | 1.37% | 70 | 3 | 0.001866 | 1 | 3 | 1
4 | – | NEWGNRFKKLADMYG [CDH1_863 − 877, Cadherin-1 peptide] | corroborated the RFxxL motif and revealed a longer stretch is contributing to binding, with an upstream tryptophan being critical for the interaction | 71% | 71% | – | – | – | – | – | – | –
5 | – | YVDLDAFLLEHGLPPS [DBP116 − 131] | revealed the importance of an extended DxDxFxxEHG stretch | 67% | 67% | 16.16% | 858 | 2 | 0.06958 | 3 | 3 | 0.9006
6 | – | EVEHRDLEDRYNQLLK [Girdin1192 − 1207, CCDC88A-encoded protein Girdin peptide] | binding to the Girdin1192 − 1207 peptide was lost when the residues LExRYxxLL were mutated to alanine | – | – | 1.10% | 80 | 2 | 0.002924 | 1 | 3 | 1
7 | 33 ± 9 µM | CSCC[C@H](NC(=O)[C@H](CCCCN)NC(=O)[C@H](C)NC(=O)[C@H](CCC(=O)O)NC(=O)[C@H](Cc1c[nH]c2ccccc12)NC(=O)[C@H](CC(C)C)NC(=O)[C@H](C)NC(=O)[C@H](CC(C)C)NC(=O)CN)C(=O)N[C@@H](CCCCN)C(=O)N[C@@H](CCC(N)=O)C(=O)N[C@@H](CC(C)C)C(=O)N[C@@H](C)C(=O)N[C@@H](CCC(=O)O)C(=O)N[C@@H](CCCNC(=N)N)C(=O)N[C@@H](C)C(=O)O [TET3_1705 − 1720] | – | – | – | – | – | – | – | – | – | –

Reference: article PMC12057046, “Elucidation of short linear motif-based interactions of the MIT and rhodanese domains of the ubiquitin-specific protease 8” (Biology Direct, 2025)
